Strand notation (5' to 3'): a small letter for the sugar, then the base; units joined by * are phosphorothioate-linked, units joined directly phosphodiester-linked; [ ] holds rarer units or linkages, { } end groups; capitals alone tell only the bases. k = constrained ethyl (cEt); [5mC] = 5-methylcytosine; d = 2'-deoxy (DNA)
Tested on: Yap1 mRNA
Experiment: Antisense inhibition of human Yap1 in A-431 cells by cEt gapmers, single dose (Example 2, RTS4814)
Format: cell-based
In short: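 Free uptake, 2,000 nM, ~48 h, A-431 at 5,000 cells/well. Readout: RT-qPCR (RTS4814), RIBOGREEN-normalized, % UTC. 16-mer 3-10-3 cEt gapmers, full PS backbone, all C as 5-methylcytosine.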

[1] = Table 21, Yap1 mRNA, percent of untreated control, 3-10-3 cEt gapmers targeting SEQ ID NO.: 1 and 2
[2] = Table 24, Yap1 mRNA as percent of untreated control, 3-10-3 cEt gapmers targeting SEQ ID NO.: 1, and 2
[3] = Yap1 mRNA as percent of untreated control, A-431 cells, 3-10-3 cEt gapmers targeting SEQ ID NO.: 1, and 2, Table 31
[4] = Table 20, Yap1 mRNA, percent of untreated control, 3-10-3 cEt gapmers targeting SEQ ID NO.: 1 and 2
[5] = Table 19, A-431 cells, 5,000 cells per well, free uptake, 2,000 nM modified oligonucleotide, approx. 48 hours, RTS4814, normalized to RIBOGREEN, Yap1 mRNA as percent of untreated control
[6] = Table 18, A-431 cells, 5,000 cells per well, free uptake, 2,000 nM modified oligonucleotide, approx. 48 hours, RTS4814, normalized to RIBOGREEN, Yap1 mRNA as percent of untreated control

## 716457 (kA*kA*kA*dG*dG*dA*dT*dA*d[5mC]*dA*dT*dT*d[5mC]*k[5mC]*kA*k[5mC]; antisense) [Compound 716457]
A-431 cells, 5,000 cells per well, free uptake, 2,000 nM modified oligonucleotide, approx. 48 hours, RTS4814, normalized to RIBOGREEN, Table 4, asterisk (*) = targets amplicon region of primer probe set
  YAP1 (% UTC): 61 % UTC

## 1075975 (kG*kG*kA*dA*dA*dA*dA*dA*dA*dT*dT*d[5mC]*d[5mC]*kG*k[5mC]*kA; antisense) [Compound 1075975]
[1]
  YAP1 (% UTC): 84 % UTC

## 1076522 (antisense kG*k[5mC]*kA*d[5mC]*dT*dA*dA*dA*dG*dG*dA*dG*dT*k[5mC]*kA*kT) [Compound 1076522]
[2]
  YAP1 (% UTC): 35 % UTC

## 1075827 (kA*kT*kA*d[5mC]*dT*dA*dT*dA*d[5mC]*d[5mC]*dT*dA*dA*kG*kG*kA; antisense) [compound 1075827]
Table 33, Yap1 mRNA, percent of untreated control, 3-10-3 cEt gapmers targeting SEQ ID NO.: 1, and 2
  YAP1 (% UTC): 60 % UTC

## 1074289 (antisense kT*kG*kA*d[5mC]*dT*dG*dA*dT*dT*d[5mC]*dT*d[5mC]*dT*kG*kG*kT) [compound 1074289]
[3]
  YAP1 (% UTC): 13 % UTC

## 1074378 (antisense kG*kA*kA*dA*d[5mC]*dG*dG*dT*dT*d[5mC]*dT*dG*d[5mC]*kT*kG*kT) [Compound 1074378]
[2]
  YAP1 (% UTC): 31 % UTC

## 1075335 (k[5mC]*kT*kT*dA*dA*dT*dA*dA*dT*d[5mC]*dT*dA*d[5mC]*k[5mC]*kA*kG; antisense) [Compound 1075335]
[1]
  YAP1 (% UTC): 30 % UTC

## 1074695 (antisense k[5mC]*k[5mC]*k[5mC]*d[5mC]*d[5mC]*dT*dA*dA*dA*dT*d[5mC]*dT*dT*k[5mC]*kA*k[5mC]) [Compound 1074695]
[1]
  YAP1 (% UTC): 49 % UTC

## 1075430 (antisense k[5mC]*kT*kT*dA*dA*d[5mC]*dT*dA*dA*d[5mC]*dT*dT*dG*kA*k[5mC]*k[5mC]) [Compound 1075430]
[4]
  YAP1 (% UTC): 96 % UTC

## 1075493 (antisense kA*kG*kA*d[5mC]*dA*dA*dG*dG*dG*dA*dT*dG*d[5mC]*kT*kA*kA) [Compound 1075493]
[5]
  YAP1 (% UTC): 67 % UTC

## 1074697 (antisense kA*kT*k[5mC]*dA*dA*dG*dG*dT*d[5mC]*d[5mC]*d[5mC]*d[5mC]*d[5mC]*kT*kA*kA) [Compound 1074697]
Table 23, Yap1 mRNA as percent of untreated control, 3-10-3 cEt gapmers, single dose
  YAP1 (% UTC): 44 % UTC

## 1076359 (kA*kT*kT*dT*dA*dT*d[5mC]*d[5mC]*dT*dA*dG*dT*dT*kA*k[5mC]*k[5mC]; antisense) [Compound 1076359]
[1]
  YAP1 (% UTC): 29 % UTC

## 1074315 (antisense kG*kA*kT*dT*dG*dA*dT*dA*dT*dT*d[5mC]*d[5mC]*dG*k[5mC]*kA*kT) [Compound 1074315]
Table 25, Yap1 mRNA as percent of untreated control, 3-10-3 cEt gapmers targeting SEQ ID NO.: 1, and 2
  YAP1 (% UTC): 3 % UTC

## 1074628 (antisense kG*k[5mC]*k[5mC]*dT*dG*dT*dT*dA*dT*dG*dA*dA*d[5mC]*k[5mC]*k[5mC]*kT) [Compound 1074628]
[6]
  YAP1 (% UTC): 5 % UTC

## 1074856 (antisense kT*kT*kT*dG*dA*d[5mC]*dA*dA*dG*dT*dG*dT*dG*k[5mC]*kA*kT) [Compound 1074856]
Table 22, Yap1 mRNA as percent of untreated control, 3-10-3 cEt gapmers, single dose
  YAP1 (% UTC): 15 % UTC

## 1075633 (antisense k[5mC]*kT*kA*dT*dA*dT*dT*dG*dG*d[5mC]*dT*d[5mC]*d[5mC]*kT*kA*kG) [compound 1075633]
[3]
  YAP1 (% UTC): 82 % UTC

## 1074116 (antisense kG*kA*kG*dA*dA*d[5mC]*dT*dT*dT*dT*dT*d[5mC]*d[5mC]*k[5mC]*kT*k[5mC]) [Compound 1074116]
[6]
  YAP1 (% UTC): 112 % UTC

## 1074278 (antisense k[5mC]*kT*kT*dG*dG*dG*dT*d[5mC]*dT*dA*dG*d[5mC]*d[5mC]*kA*kA*kG) [Compound 1074278]
[4]
  YAP1 (% UTC): 31 % UTC

## 1074213 (antisense kG*kA*kG*dT*d[5mC]*dG*dG*dG*d[5mC]*dA*dG*d[5mC]*dT*kT*k[5mC]*k[5mC]) [Compound 1074213]
[5]
  YAP1 (% UTC): 55 % UTC

## 1074180 (antisense k[5mC]*k[5mC]*kG*dG*dG*dA*dT*d[5mC]*d[5mC]*dA*dT*dG*dG*k[5mC]*kT*kT) [Compound 1074180]
[6]
  YAP1 (% UTC): 86 % UTC

## 1076145 (k[5mC]*k[5mC]*kT*dT*dA*dT*dA*dG*dG*dT*dT*dA*dT*kA*kG*kT; antisense) [compound 1076145]
[3]
  YAP1 (% UTC): 41 % UTC

## 1075781 (k[5mC]*kA*kT*dA*dT*dA*dT*dT*dG*dT*dG*dA*d[5mC]*kT*kT*k[5mC]; antisense) [Compound 1075781]
[5]
  YAP1 (% UTC): 2 % UTC

Reference: patent US11214803B2, “Modulators of YAP1 expression” (Ionis Pharmaceuticals, Inc., priority 2019, dated 2022)
